Reference: US20230265205A1, “METABOLISM-BASED CHIMERIC ANTIGEN RECEPTORS AND METHODS OF TREATMENT” (Arizona Board of Regents on behalf of Arizona State …, priority 2020, published 2023)

Test system: C57BL/6j bone marrow derived dendritic cells
Assay: Seahorse extracellular acidification rate (ECAR) assay in glucose-free media
Format: cell-based
Details: PFK15 200 nM, 4 hours
Protocol: F16BP particles rescues glycolysis even in the presence of glycolytic inhibitor PFK15. In order to test if F16BP can indeed functionally accelerate glycolysis in the presence of low glucose environment, extracellular acidification rate (ECAR), which measures changes in extracellular pH due to lactic acid production (a byproduct of glycolysis) was determined using Seahorse assays. In this case, although, C57BL/6j bone marrow derived dendritic cells (DCs, another type of phagocytic cell) were utilized, it is believed that CAR macrophages will behave similarly. Specifically, DCs were treated with PFK15 (200 nM), or F16BP particles (0.1 mg/mL) or PFK15+F16BP particles. After 4 hours of treatment with formulations, changes in pH using ECAR were recorded in glucose-free media. In a step-wise manner cells were added with oligomycin to measure ATP production and proton leak, Carbonyl cyanide-4 (trifluoromethoxy) phenylhydrazone (FCCP—disrupts mitochondrial membrane potential) to measure maximal respiration, rotenone and antimycinA (shuts down mitochondrial respiration) to measure spare capacity.

In the case of `O=C(/C=C/c1ccc2ccccc2n1)c1ccncc1` [PFK15], the “ECAR values relative to no treatment control” value is reported as “even lower than no treatment control”.
